# From PubChem BioAssay (NCI)
#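 These data come from cells grown in 96-well plates and exposed to compound for 48 hours at five concentrations. At the GI50, growth is halved. TGI marks complete inhibition of growth.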
# Columns and labels:
# Experiment in all cases: NCI-60 cell line screen, 48 h
# OVCAR-4 ovarian = system: OVCAR-4 ovarian
# HCT-116 colon = system: HCT-116 colon
# SF-295 CNS = system: SF-295 CNS
# LOX IMVI melanoma = system: LOX IMVI melanoma
# HCT-15 colon = system: HCT-15 colon
# SR leukemia = system: SR leukemia
# SK-OV-3 ovarian = system: SK-OV-3 ovarian
# SK-MEL-2 melanoma = system: SK-MEL-2 melanoma
# NCI-H522 lung = system: NCI-H522 lung
# ACHN renal = system: ACHN renal
Compound,GI50 (OVCAR-4 ovarian) [µM],TGI (OVCAR-4 ovarian) [µM],GI50 (HCT-116 colon) [µM],TGI (HCT-116 colon) [µM],GI50 (SF-295 CNS) [µM],TGI (SF-295 CNS) [µM],GI50 (LOX IMVI melanoma) [µM],TGI (LOX IMVI melanoma) [µM],GI50 (HCT-15 colon) [µM],TGI (HCT-15 colon) [µM],GI50 (SR leukemia) [µM],TGI (SR leukemia) [µM],GI50 (SK-OV-3 ovarian) [µM],TGI (SK-OV-3 ovarian) [µM],GI50 (SK-MEL-2 melanoma) [µM],TGI (SK-MEL-2 melanoma) [µM],GI50 (NCI-H522 lung) [µM],TGI (NCI-H522 lung) [µM],GI50 (ACHN renal) [µM],TGI (ACHN renal) [µM]
O=Cc1c[nH]c2ccc(-c3csc4ccccc34)cc12,5.12,> 100,3.6,> 100,2.64,13.1,3.87,> 100,2.98,> 100,1.12,10.9,5.34,> 100,2.65,> 100,3.23,> 100,5.11,> 100
NS(=O)(=O)c1cccc(-c2cc3ccncc3cc2OCc2ccccc2)c1,11.5,> 25,10.1,> 25,6.55,> 17.7,12.4,> 25,7.67,> 25,11.6,> 25,> 18.5,> 25,7.43,> 19.6,13.5,> 25,8.14,> 25
O=C(O)CC1C(=O)OC2C3COC(=O)c4cc(O)c(O)c(O)c4-c4c(cc(O)c(O)c4O)C(=O)OC2C(OC(=O)c2cc(O)c(O)c4c2C1C(O)C(=O)O4)C(OC(=O)c1cc(O)c(O)c(O)c1)O3 (stereo not given),–,> 100,–,27.8,–,> 100,–,31.5,–,> 100,–,75.8,–,> 100,–,> 100,–,46.6,–,> 100
C[C@@H](Oc1cc(-c2cnn(C3CC4(CNC4)C3)c2)cnc1N)c1c(Cl)ccc(F)c1Cl,9.15,22.7,2.09,8.87,1.41,13.6,1.96,6.79,4.04,15.1,0.0769,2.05,7.98,21.1,3.58,15.1,10.2,25.4,4.89,18.3
COc1ccc(C2=NNC(c3cc(Cc4ccc(O)c(C5CC(c6ccc(OC)cc6)=NN5)c4)ccc3O)C2)cc1 (stereo not given),5.36,> 100,4.11,15.9,21.2,> 100,7.38,32.3,3.64,> 100,16.4,> 100,31.6,> 100,5.9,29,3.64,23.4,5.56,> 100
Nc1cccc2c1CN(C1CCC(=O)NC1=O)C2=O (stereo not given),> 100,> 100,> 100,> 100,> 100,> 100,> 100,> 100,> 100,> 100,> 100,> 100,> 100,> 100,> 100,> 100,> 100,> 100,> 100,> 100
Cc1cc(Br)c2nsnc2c1[N+](=O)[O-],4.73,17.3,1.77,3.63,2.96,12.1,0.94,3.07,4.28,18.4,0.706,3.23,13.5,26.4,3.45,8.89,0.176,0.381,4.39,15.5
C=C1C(=O)O[C@H]2[C@H]1CC/C(COC(=O)c1cccc3ccccc13)=C\CC[C@@]1(C)O[C@@H]21,1.7,3.43,1.23,2.53,2.47,10.2,1.35,2.8,1.19,2.89,0.363,> 100,11.6,23.7,1.63,3.38,1.66,3.22,1.52,2.86
O=C(O)c1ccccc1-c1ccccc1C(=O)Nc1ccc2c(c1)Cc1ccccc1-2,–,> 100,–,35.9,–,> 100,–,54.5,–,56,–,65.1,–,> 100,–,50.7,–,55.2,–,> 100
CCOC(=O)C1=C(C)NC(C)=C(C(=O)OCC)C1c1cc(Br)c(O)c(OC)c1,5.97,37,3.97,13.5,2.89,10.5,5.23,18.6,3.65,14.2,2.01,21.2,2.92,7.38,5.29,20.1,4.22,20.1,5.56,22
CCOC(=O)c1c(C(F)(F)F)n([O-])c2ccc(Cl)cc2[n+]1=O,2.16,5.73,1.86,3.43,1.24,2.83,1.57,3.08,1.52,3.16,1.55,4.35,4.14,16.1,1.94,4.34,2.11,4.3,1.69,3.14
CC(C)(C)C1CCP(=O)(c2ccccc2)CC1 (stereo not given),–,> 100,–,> 100,–,> 100,–,> 100,–,> 100,–,> 100,–,> 100,–,> 100,–,> 100,–,> 100
Cc1ccc(C)c(NC(=O)C(=O)CC(=O)c2cccc3ccccc23)c1,–,> 100,–,> 100,–,> 100,–,> 100,–,> 100,–,> 100,–,> 100,–,> 100,–,> 100,–,> 100
Cc1ccc2nc3sc(=O)sc3nc2c1,–,26.8,–,30.9,–,31,–,28.2,–,31.3,–,80.2,–,34.6,–,29,–,35.7,–,28.5
